Measurements reported in patent US5925769A, “Acetylenic 1,5-diarylpyrazoles as antiinflammatory agents” (Ortho Pharmaceutical, Corp., priority 1998, dated 1999).
Where two headings read alike, the source gives them in different places.

How the values were obtained:
5-LO [1] = molecular target: T1, 5-LO (Rattus norvegicus, UniProt P12527); experiment: Procedure II: 5-LO activity (5-HETE) in broken RBL-1 cells (homogenate supernatant); type: biochemical; details: RBL-1 broken cell supernatant; for IC50: read-out: Proc. II 5-LO IC50; for inhibition at 10 µM: 20 min, @ 10 .quadrature.M, read-out: Proc. II 5-LO % inhibition
T1 construct: the supernatant was saved as the source of enzymes; endogenous in cells; host or cells: RBL-1 (rat basophilic leukemia) cells
T1 sequence (P12527 1-673): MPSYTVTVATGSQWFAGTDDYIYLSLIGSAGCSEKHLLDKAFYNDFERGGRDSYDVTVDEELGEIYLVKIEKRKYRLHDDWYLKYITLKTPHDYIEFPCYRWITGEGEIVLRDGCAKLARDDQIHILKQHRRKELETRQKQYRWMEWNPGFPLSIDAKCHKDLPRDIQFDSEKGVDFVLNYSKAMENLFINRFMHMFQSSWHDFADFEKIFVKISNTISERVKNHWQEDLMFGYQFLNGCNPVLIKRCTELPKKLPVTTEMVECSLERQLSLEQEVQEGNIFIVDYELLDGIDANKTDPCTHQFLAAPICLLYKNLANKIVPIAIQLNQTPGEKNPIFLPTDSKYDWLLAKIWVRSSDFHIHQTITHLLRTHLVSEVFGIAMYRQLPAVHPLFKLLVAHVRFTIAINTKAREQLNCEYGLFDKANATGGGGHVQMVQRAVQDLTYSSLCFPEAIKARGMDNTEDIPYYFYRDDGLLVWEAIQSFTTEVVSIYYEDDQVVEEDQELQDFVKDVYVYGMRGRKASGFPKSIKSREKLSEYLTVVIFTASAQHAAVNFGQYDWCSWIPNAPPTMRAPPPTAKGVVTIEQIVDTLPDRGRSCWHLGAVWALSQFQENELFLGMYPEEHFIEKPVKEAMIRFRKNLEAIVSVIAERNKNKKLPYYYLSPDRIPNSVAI
Procedure: (§1) Procedure II was used to assess LO and CO activity. Rat basophilic leukemia cells (RBL-1; 5×10^7 viable cells/mL) were disrupted by homogenization on ice (four 20 sec bursts) with a Brinkman polytron. […] The homogenate was then centrifuged at 9,220×g for 48 minutes at 4° C. The pellet was discarded and the supernatant was saved as the source of enzymes. The supernatant was pre-incubated for five minutes at 37° C. in the presence of 2 mM of CaCl2 and compound or vehicle (1% DMSO). The conversion of AA into products by CO and LO was initiated by adding 10 μL (50 μCi) of 1-^14 C-AA to each tube and incubated at 37° C. for 20 minutes. The reaction was stopped by adjusting the pH of each sample to 3 to 3.5 with 2M formic acid. Samples were extracted with three volumes of chloroform to isolate the products of 5-LO formed during the reaction. Fractions were dried under nitrogen, then resuspended in 40 μL of chloroform and spotted onto silica gel HL plates. The plates were developed in A-9 solvent. The dried plates were analyzed using a Bioscan Imaging TLC scanner to determine the percentage of radiolabelled AA converted to 5-HETE (LO product) in each sample. The percentage of inhibition was calculated by:
(§2) [1-(5-HETE test)]/5-HETE control×100=% inhibition
(§3) The IC50 was determined using a curve fit in Cricket Graph (Computer Associated), which provided the equation of the regressed line used in the calculation.

[2] = molecular target: T2, Sheep seminal vesicle (SSV) cyclooxygenase (Ovis aries, UniProt P05979); experiment: Procedure I: inhibition of sheep seminal vesicle (SSV) cyclooxygenase; type: biochemical; details: for inhibition at 10 µM: 20 min, read-out: Proc. I % inhibition
T2 construct: Sheep seminal vesicle (SSV) cyclooxygenase (95% pure); purchased Biomol (Plymouth Meeting, PA); host or cells: sheep seminal vesicle
T2 sequence (P05979 25-600): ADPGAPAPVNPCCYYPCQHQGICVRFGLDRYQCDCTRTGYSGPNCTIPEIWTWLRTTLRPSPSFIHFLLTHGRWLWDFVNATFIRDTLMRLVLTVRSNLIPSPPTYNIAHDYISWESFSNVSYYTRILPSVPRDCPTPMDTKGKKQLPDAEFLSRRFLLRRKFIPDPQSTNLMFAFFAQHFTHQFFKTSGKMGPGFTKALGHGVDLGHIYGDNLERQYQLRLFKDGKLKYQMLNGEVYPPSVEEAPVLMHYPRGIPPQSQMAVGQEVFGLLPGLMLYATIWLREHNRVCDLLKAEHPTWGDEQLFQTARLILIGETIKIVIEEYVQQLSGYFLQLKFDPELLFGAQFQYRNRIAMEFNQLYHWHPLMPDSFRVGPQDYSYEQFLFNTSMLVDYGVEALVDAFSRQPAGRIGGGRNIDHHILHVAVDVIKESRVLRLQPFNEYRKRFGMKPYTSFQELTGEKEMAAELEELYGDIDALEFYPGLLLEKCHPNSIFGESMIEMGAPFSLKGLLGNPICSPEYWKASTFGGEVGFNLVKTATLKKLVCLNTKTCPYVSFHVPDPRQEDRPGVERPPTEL
Procedure: Procedure I was used to determine the ability of the compounds to inhibit cyclooxygenase. […] The enzyme was divided into 200 μL aliquots, snap frozen with liquid N2, and stored at -70° C. until immediately prior to use. […] The tubes were mixed on a vortex shaker, preincubated for 5 min at 37° C. prior to the initiation of the reaction. The reaction was started by the addition of [^14 C]-arachidonic acid (1-^14 C-AA, Amersham, Arlington Heights, Ill.) in 10 μL of methanol. Tubes were again vortexed and incubated in a water bath for 20 minutes after which the tubes were removed and the reaction stopped by acidification with the addition of 1 mL 2M formic acid. Lipophilic products were extracted with 3 mL chloroform and concentrated to dryness under N2. Each pellet was reconstituted with 40 μL of chloroform and spotted on a Whatman Silicon thin-layer chromatography plate and developed in a chromatography tank containing A-9 solvent (11:5:2:1 V:V:VV, ethyl acetate:trimethyl-pentane:acetic acid:double distilled-H2 O). Radioactive cyclooxygenase products (prostaglandin D2, prostaglandin E2, etc.) were measured using a Bioscan System 200 Imaging Scanner. Inhibition of enzyme activity was calculated by comparing the areas under the curve produced in the presence or absence of test compound.

CO [3] = molecular target: T3, CO (Rattus norvegicus, UniProt Q63921); experiment: Procedure II: CO activity in broken RBL-1 cells (homogenate supernatant); type: biochemical; details: RBL-1 broken cell supernatant; for IC50: read-out: Proc. II CO IC50; for inhibition at 10 µM: 20 min, @ 10 .quadrature.M, read-out: Proc. II CO % inhibition
T3 construct: the supernatant was saved as the source of enzymes; endogenous in cells; host or cells: RBL-1 (rat basophilic leukemia) cells
T3 sequence (Q63921 27-602): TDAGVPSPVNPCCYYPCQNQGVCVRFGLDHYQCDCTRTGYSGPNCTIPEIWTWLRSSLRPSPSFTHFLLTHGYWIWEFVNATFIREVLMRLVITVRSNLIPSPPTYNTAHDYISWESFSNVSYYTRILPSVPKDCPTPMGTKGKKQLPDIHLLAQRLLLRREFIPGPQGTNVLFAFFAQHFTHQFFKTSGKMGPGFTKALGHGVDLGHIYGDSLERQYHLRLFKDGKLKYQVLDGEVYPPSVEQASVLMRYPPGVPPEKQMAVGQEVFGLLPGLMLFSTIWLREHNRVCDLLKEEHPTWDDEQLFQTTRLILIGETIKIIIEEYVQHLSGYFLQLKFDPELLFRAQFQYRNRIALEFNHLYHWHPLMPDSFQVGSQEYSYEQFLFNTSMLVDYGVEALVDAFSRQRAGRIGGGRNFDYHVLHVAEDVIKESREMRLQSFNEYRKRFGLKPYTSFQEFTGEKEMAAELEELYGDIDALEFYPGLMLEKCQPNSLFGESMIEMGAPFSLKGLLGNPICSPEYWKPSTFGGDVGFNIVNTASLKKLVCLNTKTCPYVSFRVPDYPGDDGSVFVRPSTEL
Procedure: as §1, §2, §3

5-LO [4] = molecular target: T1, 5-LO; experiment: Procedure III: 5-LO (5-HETE) in intact RBL-1 cells; type: cell-based; details: calcium ionophore A 23187, read-out: Proc. III 5-LO IC50
Procedure: as §3
(§4) In Procedure III, the ability to inhibit 5-LO and CO in intact RBL-1 cells was also evaluated. […] Cells were collected by centrifugation, washed once in HBSS, and resuspended at a concentration of 1×10^5 cells/mL. Cells were incubated in the presence of vehicle or drug then centrifuged at 800×g for 10 minutes at 4° C. The supernatant was removed by aspiration and the cells were resuspended in 0.5 mL of HBSS. […] The conversion of AA to 5-LO products was initiated by the addition of 10 μL (50 μCi) of 1-^14 C-AA. Products were isolated by acidification and extraction, followed by thin layer chromatography analysis as described above. Radioactive areas corresponding to authentic 5-LO (5-HETE) and CO (PgD2) products were quantitated by the Bioscan 2000 Imaging System and the IC50 was calculated as above.

CO [5] = molecular target: T3, CO; experiment: Procedure III: CO (PgD2) in intact RBL-1 cells; type: cell-based; details: calcium ionophore A 23187, read-out: Proc. III CO IC50
Procedure: as §3, §4

[6] = @ 10 .quadrature.M, SSV cyclooxygenase

SMILES	IC50 (5-LO [1])	inhibition at 10 µM [2, 6]	IC50 (CO [3])	IC50 (5-LO [4])	IC50 (CO [5])	inhibition at 10 µM (CO [3])	inhibition at 10 µM (5-LO [1])	inhibition at 10 µM [2]	IC50 ([2]; SSV cyclooxygenase, read-out: Proc. I IC50)
COc1ccc(-n2nc(C#CC(C)N(O)C(N)=O)cc2-c2ccc(C)cc2)cc1 (stereo not drawn) [Cpd 2, N-hydroxy-N-(1-(1-(4-methoxyphenyl)-5-(4-methylphenyl)pyrazol-3-yl)-1-butyn-3-yl)urea]	0.37 µM	10%	9.4 µM	7.7 µM	1.4 µM				
CCC(C#Cc1cc(-c2ccc(C)cc2)n(-c2ccc(OC)cc2)n1)N(O)C(N)=O (stereo not drawn) [Cpd 3]	0.07 µM	22%	15.9 µM	21.3 µM	2.1 µM				
COc1ccc(-n2nc(C#CC(C(C)C)N(O)C(N)=O)cc2-c2ccc(C)cc2)cc1 (stereo not drawn) [Cpd 4]	0.24 µM	29%	4.6 µM	8.4 µM	1.2 µM				
COc1ccc(-n2nc(C#CCN(O)C(N)=O)cc2-c2ccc(Cl)cc2)cc1 [Cpd 5, N-hydroxy-N-(1-(5-(4-chlorophenyl)-1-(4-methoxyphenyl)pyrazol-3-yl)-1-propyn-3-yl)urea]	0.08 µM	9%		0.9 µM		0%			
CNC(=O)N(O)C(C)C#Cc1cc(-c2ccc(Cl)cc2)n(-c2ccc(OC)cc2)n1 (stereo not drawn) [Cpd 7]		5%				0%	79%		
CCCNC(=O)N(O)C(C)C#Cc1cc(-c2ccc(Cl)cc2)n(-c2ccc(OC)cc2)n1 (stereo not drawn) [Cpd 8]		14%		2.8 µM		32%	82%		
COc1ccc(-n2nc(C#CC(C)N(O)C(=O)N3CCCCC3)cc2-c2ccc(Cl)cc2)cc1 (stereo not drawn) [Cpd 9]				8 µM			76%	44%	
COc1ccc(-n2nc(C#CCN(O)C(=O)c3ccccc3)cc2-c2ccc(C)cc2)cc1 [Cpd 15]				8 µM			100%	52%	
CCC(=O)N(O)C(C)C#Cc1cc(-c2ccc(C)cc2)n(-c2ccc(OC)cc2)n1 (stereo not drawn) [Cpd 19]		76%				67%	93%		
COc1ccc(-n2nc(C#CC(C)N(O)C(=O)c3ccco3)cc2-c2ccc(C)cc2)cc1 (stereo not drawn) [Cpd 25, N-(furan-2-carbonyl)-N-(1-(1-(4-methoxyphenyl)-5-(4-methylphenyl)pyrazol-3-yl)-1-butyn-3-yl)hydroxylamine]						61%	70%		1.3 µM
CCc1ccc(-c2cc(C#CC(C)N(O)C(=O)CCC(=O)O)nn2-c2ccc(OC)cc2)cc1 (stereo not drawn) [Cpd 33]		0%				0%	37%		
CCC(=O)N(O)C(C)C#Cc1cc(-c2ccc(Cl)cc2)n(-c2ccc(OC)cc2)n1 (stereo not drawn) [Cpd 36]						100%	100%		
COc1ccc(-n2nc(C#CC(C)N(O)C(=O)C(C)C)cc2-c2ccc(Cl)cc2)cc1 (stereo not drawn) [Cpd 37]						80%	100%		
CCCCCCCC(=O)N(O)C(C)C#Cc1cc(-c2ccc(Cl)cc2)n(-c2ccc(OC)cc2)n1 (stereo not drawn) [Cpd 38]		31%				21%	100%		
COc1ccc(-n2nc(C#CC(C)N(O)C(=O)CCC(=O)O)cc2-c2ccc(Cl)cc2)cc1 (stereo not drawn) [Cpd 39]		0%				0%	74%		
COc1ccc(-n2nc(C#CC(C)N(O)C(=O)CNCCCN(C)C)cc2-c2ccc(C)cc2)cc1 (stereo not drawn) [Cpd 42]		0%				14%	29%		
CCc1ccc(-c2cc(C#CC(C)N(O)C(=O)CN3CCOCC3)nn2-c2ccc(OC)cc2)cc1 (stereo not drawn) [Cpd 44]		0%				0%	93%		
CCc1ccc(-c2cc(C#CC(C)N(O)C(=O)CN3CCN(C)CC3)nn2-c2ccc(OC)cc2)cc1 (stereo not drawn) [Cpd 45, N-(4-methylpiperazin-1-yl)acetyl-N-(1-[5-(4-ethylphenyl)-1-(4-methoxyphenyl)pyrazol-3-yl]-1-butyn-3-yl)hydroxylamine]		0%				11%	25%		
